The values below come from a melting point compilation (Tetko et al.; mined from patent text by program, amines drawn as free bases though some values may be those of a salt).

Bounds are passed on as bounds.

Turning to `CCOc1nc2ccccc2nc1NC(=O)N1CCN(c2cccc(C)c2C)CC1`, the melting point (commonly the temperature, or range, at which the solid turns liquid) was in the range of 108 to 110 °C.
With `c1coc(-c2ccnc3[nH]c4ccccc4c23)c1` the figure was > 220 °C; with `O=C(O)CCC(=O)OCc1ccccc1[N+](=O)[O-]`, 63 to 65 °C.
For `COc1ccc(OCCCO)cc1`, the melting point fell in the range of 56 to 60 °C.
Under `COc1ccc2c(c1)c(-c1cc3c(C#N)ccnc3[nH]1)cn2C` stands 304 to 305 °C.
Under `Oc1cc(-c2ccc(Cl)cc2)[nH]n1` stands 240 to 241 °C.
Under `NC1c2ccccc2CC2CCCCC21` (centres undefined) stands 37 to 39 °C; under `O=C(O)Cc1ccc2oc3ncccc3c(=O)c2c1`, 244 to 245 °C.
In the case of `Cc1ccc(S(N)(=O)=O)cc1NC(=O)c1cnn2c(C(F)F)cc(-c3ccc(C(F)(F)F)cc3)nc12`, the melting point was determined as 293 °C.
With `C=C(C)Cc1cc(C(=O)O)ccc1OCc1ccc(F)cc1` the figure was 164 to 165 °C.
`COc1cc(C(=O)Nc2nc(C)c(C(=O)NCc3ccccc3)s2)ccn1` displayed a melting point of 188 to 190 °C.
Compound `C=CCOc1ccc2c(C)cc(=O)oc2c1C` yielded a melting point of 107 to 108 °C.
Compound `CC1(C)SC2C(NC(=O)CNC(=O)NC(=N)Cc3ccc(Cl)cc3)C(=O)N2C1c1nnn[nH]1` (centres undefined) registered a melting point of 150 to 162 °C.
For `NC(=O)c1cc(C(=O)CN(Cc2ccccc2)Cc2ccccc2)ccc1OCC(O)CO` (centres undefined), the melting point is 169 to 173 °C.
The compound `CCCCCCCCc1ncc([N+](=O)[O-])n1C` came in with a melting point of 141 °C.
Under `Cc1cc(-c2nncc3c(C(C)(C)C)c(OCc4ncnn4C)nn23)no1` stands 171 to 174 °C; under `CNC1(C(=O)O)CCN(OC)CC1`, > 250 °C; under `COC(=O)C1(CN2CCC(Cc3ccc(F)cc3)CC2)CC(c2ccc3[nH]c(=O)oc3c2)=NO1` (centres undefined), 146 to 155 °C.
In turn, `CCn1c(=O)c2c(nc(/C=C/c3ccc(OC)cc3OC)n2C)n(CC)c1=O` returned a melting point of 196 to 197 °C.
Under `COc1ccc(COC(=O)C2=C3[C@H]4CCCC[C@H]4[C@@H]3S[C@@H]3[C@H](NC(=O)Cc4ccccc4)C(=O)N23)cc1` stands 234 to 236 °C; under `Cc1cc(C2CCC(c3ccc(O)cc3)CC2)ccc1O` (centres undefined), 214 °C; under `COc1ccc2cc(CCl)ccc2c1`, 63 to 65 °C.
With `Cc1c(Cl)ccc(Br)c1Cl` the figure was 32 to 33 °C.
`COc1ccc(C(=O)O)c(OCc2cccc(OCc3ccc4ccccc4n3)c2)c1` showed a melting point of 117 to 118 °C.
On to `CC1=CSC(O)C(=O)N1` (centres undefined), for which the melting point fell in the range of 166 to 168 °C.
With `CC(C)(CO)CCCCCC(O)CCCCC(C)(C)CO` (centres undefined) the figure was 79 to 80 °C; with `O=C(NCCCn1ccc2cc(NC(=O)c3nc4ccc(Cl)cc4n3Cc3ccccc3)ccc21)c1cccnc1`, 206 to 207 °C.
`OC[C@H]1OC[C@@H](n2c(Br)nc3cc(Cl)c(Cl)cc32)[C@H](O)[C@@H]1O` gave a melting point of 207 to 209 °C.
For `CCOC(=O)c1ccc(C2=CCCCC2C(C)(C)C)cc1` (centres undefined), the melting point is 50 °C.
With `COc1nc(Br)cnc1NS(=O)(=O)c1ccccc1-c1ccc(C)cc1` the figure was 204 to 206 °C; with `CCOC(=O)C(C#N)=CNc1ncccc1CC`, 122 to 125 °C; with `CC(=O)Nc1cccc2c1C(=O)CCCC2`, 155 to 162 °C.
As for `CCC[C@H]1CC[C@H](c2ncc(C(=O)OCC)c(O)n2)CC1`, the melting point lay within 156 to 157 °C.
The compound `CCN(CC)CCn1nnnc1-c1ccc2oc3ncccc3c(=O)c2c1` displayed a melting point of 126 to 128 °C.
As to `C=C1C[C@@H]2[C@H](CC[C@]3(C)C(=O)CC[C@@H]23)[C@@]2(C)CCC(=O)C(OC)=C12`, the melting point lay within 196 to 198 °C.
`O=S(=O)(c1ccccc1)n1cc(CCOC2OC(CO)C(O)CC2O)c2ccccc21` (centres undefined) had a melting point of 55 to 57 °C.
On to `CCCCCCC[C@H]1CC[C@H](CCc2ccc(-c3ccc(Br)cc3F)cc2)CC1`, for which the melting point was found to be 54 °C.
In turn, `O=C(Nc1c[nH]nc1C(=O)NCCNc1ccccn1)c1ccccn1` yielded a melting point of 260 to 262 °C.
Consider `OCc1ccc(N(c2ccccc2)c2ccccc2)cc1`, for which the melting point is 104 to 105 °C.
With `O=C(O)/C=C/n1cnc2ccc(O)cc2c1=O` the figure was 294 to 296 °C; with `CN(C(=O)CN1C(=O)c2ccccc2C1=O)c1ccc(Cl)c(CO)c1Cl`, 236 to 241 °C.
`C#CCCCc1c2c3c(nc(N)c2nn1CCC)CCCC3` showed a melting point of 167 to 169 °C.
As to `COc1ccc(/C=C/C(=O)Nc2ccccc2C(N)=O)cc1OC`, the melting point was 184 to 186 °C.
With `CN(C)[C@H]1CCN(c2c(-c3ccccc3)cc(C#N)c3oc(C(C)(C)C)cc23)C1` the figure was 46 to 48 °C; with `COc1ccc(-c2cc(C(=O)C(C)CN3CCCC3)on2)cc1` (centres undefined), 75 to 77 °C; with `CCCCCCCCOC(=O)Nc1c2c(nc3ccccc13)CCCC2`, 96 to 99 °C.
With `COc1c(F)cc2c(O)c(C(=O)NCc3ccc(Cl)cc3)cnc2c1F` the figure was 217 to 219 °C; with `CCOCc1nc2c(N)nc3ccc(OCc4ccccc4)cc3c2n1CCCCNS(C)(=O)=O`, 182 to 185 °C.
As to `Cc1c2c(c(-c3ccc4c(c3)OCO4)c3c4c(ccc13)OCO4)C(=O)NC2=O`, the melting point was in the range of 310 to 313 °C.
Under `O=C(O)Cc1cccc2c1ccn2Cc1ccccc1` stands 138 to 140 °C; under `CC(=O)c1ccc(S(=O)(=O)Nc2ccc(C(F)(F)F)cn2)cc1`, 179 to 180 °C; under `CC(C)(C)C(=O)CN1C(=O)C(NC(=O)Nc2ccccc2)CN(C2CCCCC2)c2ccccc21` (centres undefined), 247 to 251 °C.
Under `NC(=O)C(CCC(=O)OCc1ccccc1)N1Cc2c(OCc3ccc(CN4CCOCC4)cc3)cccc2C1=O` (centres undefined) stands 141 to 143 °C; under `Nc1cc(-c2cccnc2)cc2nc(-c3ccccc3)nn12`, 201 to 203 °C; under `N#CCc1cccc(Cc2ccccc2)c1`, 136 to 137 °C.
With `CC(C)C[C@H](NC(=O)C1CCCCC1)C(=O)N[C@@H](C(C)C)[C@@H](O)c1c(-c2ccccc2)c1=O` the figure was 116 to 120 °C; with `CS(=O)(=O)c1ccc(-c2cnn(CC(F)(F)F)c(=O)c2Sc2nc[nH]n2)cc1`, 197 to 200 °C; with `O=C(O)Cc1cc(C2CC2)ccc1Nc1ccc(-c2ccc(F)cc2)cc1F`, 182 to 183 °C.
Compound `COc1c(Cl)c(-c2nnc(C)s2)cc2oc(=O)c(C)c(C)c12` showed a melting point of 209 to 210 °C.
On to `Oc1ccccc1-n1nnc2cccnc21`, for which the melting point lay within 165 to 166 °C.
With `COc1ccc(-c2nn(Cc3ccncc3)c(=O)cc2-c2ccc(Cl)cc2)cc1` the figure was 142 to 143 °C; with `CC(C)(C)OC(=O)CN(CC(=O)OC(C)(C)C)S(=O)(=O)c1ccc(N2CCC(NC[C@H](O)c3ccc(O)c(NS(C)(=O)=O)c3)CC2)cc1`, 164 to 166 °C; with `CCCOc1cc2c(c3c1OC(C)(C)C3)C(c1cccc(-c3ccncc3)c1)=NC(C)(C)C2`, 132 to 134 °C.
Under `O=C(NCc1ccccc1)c1cnc(-c2ccccc2)nc1S` stands 189 to 193 °C; under `CCC1CC(=O)N(CCc2ccc(NC(=O)c3cccs3)cc2)N=C1c1ccc(OC)c(OC)c1` (centres undefined), 186 °C.
With `CC(=O)N(c1nc(N)no1)c1c(Cl)cccc1Cl` the figure was 164 to 165 °C.
For the compound `CNC(=O)C(Cc1ccc(OC)cc1)NC(=O)CC(SC(C)=O)C(CC(C)C)C(N)=O` (centres undefined), the melting point fell in the range of 235 to 240 °C.
Turning to `COC(=O)c1cc(=O)c2ccc(S)cc2o1`, the melting point was in the range of 147 to 150 °C.
With `Cc1cccc(CN(CCC(=O)O)c2nc(N)nc(Cl)n2)c1`, the melting point was 168 to 170 °C.
Compound `Cn1cnnc1C(O)(c1ccc(I)cc1)c1ccc2c(c1)C(c1cccc(Cl)c1)Nc1nnnn1-2` (centres undefined) came in with a melting point of 201 °C.
For the compound `CCCC(NC=O)C1(c2ccc(Cl)cc2)CCC1` (centres undefined), the melting point fell in the range of 97.5 to 98.5 °C.
Under `CCN1CCOc2cc(Nc3ncc(Cl)c(Nc4ccccc4C(=O)NC)n3)ccc2C1=O` stands 215 to 220 °C; under `COc1cc(C2=C(c3c(C)[nH]c4ccccc34)C(=O)NC2=O)cc(OC)c1OC`, 266 °C; under `CCOC(=O)c1[nH]c2cc(Cl)cc(Cl)c2c1NCCC(=O)c1ccccc1Cc1ccccc1`, 208 to 209 °C.
Under `CC(C)(S)CN1CCN(C(=O)c2ccc(O)cc2)CC1` stands 46 °C; under `CC(C)(C)OC(=O)N1CCNC[C@H]1C(c1ccccc1)c1ccccc1`, 100 to 105 °C.
With `Cc1cc(COc2ccc(CC(=O)O)cc2Cl)ccc1OC(C)C` the figure was 104 to 105 °C.
Consider `COc1cc(NS(C)(=O)=O)ccc1C1=NC2=CCC(=O)NC2=N1`, for which the melting point is > 255 °C.
With `O=C1c2cc([N+](=O)[O-])ccc2CCn2cccc21`, the melting point was in the range of 190 to 192 °C.
With `COc1cc(NC(=O)Oc2ccccc2)ccc1S(=O)(=O)n1c(=O)n(C2CCCCCC2)c2cc(Cl)ccc21` the figure was 234 °C; with `CC(=O)c1ccc(-c2cc(C(C)(C)C)c(O)c(C(C)(C)C)c2)cc1`, 144 to 145 °C.
As for `C#Cc1cccc(NC(C)=O)c1`, the melting point was in the range of 94 to 96 °C.
`CS(=O)c1cccc(S(N)(=O)=O)c1` (centres undefined) had a melting point of 217 to 221 °C.
Consider `COc1ccc(C)cc1NC(=O)Nc1ccc(N2CCN(C(=O)Nc3ccc(OCC(O)CO)cc3Cl)CC2)cc1` (centres undefined), for which the melting point was in the range of 134 to 136 °C.
`CC1(COc2cc(/C=C/C(=O)O)n(Cc3ccc(C(F)(F)F)cc3Cl)n2)COC1` returned a melting point of 148 to 149 °C.
With `COC(=O)CCCc1nc2[nH]c3ccccc3c2c(=O)[nH]1` the figure was 258 °C; with `CN1C(=O)C2(COc3cc4c(cc32)OCCO4)c2c(C(=O)NC3CCCC3)cccc21` (centres undefined), 135 to 136 °C.
Under `Cc1cccc(CCOc2ccc(CC3SC(=O)NC3=O)cc2)n1` (centres undefined) stands 156 to 157 °C; under `Cc1cc(I)ccc1Nc1c(-c2nnc(N)o2)ccc(F)c1F`, 184 °C.
